Data on 2 compounds can be found in patent US5506271A, “Method of treating papilloma virus infection using hypericin” (New York University, priority 1993, dated 1996).

Entries after “also recorded” stand apart in the source; their conditions may differ. Where two headings read alike, the source gives them in different places.

Series [1] relates to Radiation leukemia virus (RadLV). Put plainly: Guanidinium hydrochloride extraction of RNA from hypericin-treated virions. The arrangement: species or system murine. Particulars: virions treated with hypericin prior to GuHCl disruption; FIG. 3. An excerpt: The present inventors have further discovered that hypericin-treated retroviral particles become more resistant to dissociation by harsh denaturing reagents such as guanidinium hydrochloride (GuHCl). These denaturing agents effectively disrupt hydrogen bonding, thereby unfolding tertiary and quaternary structures of proteins and causing dissociation of bonded proteins and the collapse of biological structures.

Series [2] is described as follows: Solubility of hypericin ion pair and salt forms in organic solvents. Type of series: physicochemical. The source says:
As indicated above, hypericin has hydroxy groups at R^1 and R^2 in its free acid form. Upon reaction with a base, the free acid form of hypericin ionizes at R^1 and R^2. Under alkaline conditions below about pH 11.5, only one of these hydroxy groups ionize to form a salt with the base. At more alkaline conditions, both hydroxy groups ionize to form a salt with two basic cations. The salt with two basic cations has substantially different physical properties as that with one cation. […] To differentiate these two forms of hypericin, the former, which behaves as an organic compound, will be referred to herein as an ion pair and the latter as a salt.

The subject of series [3] is HIV reverse transcriptase activity. Put plainly: Reverse transcriptase activity of hypericin-treated HIV. Type of series: biochemical. To be noted: Expt 1. On the procedure: Hypericin Reduces Infectivity and Reverse Transcriptase
Activity of HIV Infecting CEM × 14 Cells
(§1) overnight with hypericin at 4° C.. RT: reverse transcriptase

Series [4] concerns Friend virus. The experiment in a line: Protective effect of virus preparations inactivated with hypericin, Rose Bengal or combinations against live Friend virus challenge (FIG. 10). To be noted: challenge day 21, spleens weighed after 15 days. Type of series: in vivo, BALB/C mice. The source says:
FIG. 10 is a graph showing the protective effect of the inactivated virus preparations described in FIG. 9. On day 21 after administration of the treated virus preparation, all animals were challenged with live Friend virus. Also included were control groups of mice injected with live Friend virus, and mice injected with PBS only. After 15 days, all mice were sacrificed and their spleens weighed as a measure of protection.
In this experiment, inhibition of splenomegaly served as the measure of protection resulting from immunogenicity of the virus preparations.

In series [5] the test system is HIV. Put plainly: HIV infectivity monitored by HIV-induced destruction of CEM ×174 cultures infected with dilutions of hypericin-treated virus. The class given is cell-based. To be noted: for log reduction at 10 µg/mL: hypericin 10 μg/ml. On the procedure: Hypericin can effectively inactivate retroviral particles rendering them non infectious.
In these experiments infectivity was monitored by HIVinduced destruction
of CEM ×174 after these cultures were infected with increasing
dilutions of hypericintreated virus. For Experiment 2, virus was incubate
as §1

Series [6] deals with Friend leukemia virus (FLV). Put plainly: Inactivation of Friend leukemia virus by extracorporeal hypericin treatment, splenomegaly in mice. Type of series: in vivo, BALB/c mice. On the procedure:
FIG. 6 is a graph showing the inactivation of Friend leukemia virus (FLV) extracorporeal treatment with hypericin. Virus infectivity is measured as splenomegaly. Uninfected mice generally have spleen weights in the range of 0.08 to 0.2 grams.
Synthetic hypericin prepared from emodin was solubilized in 0.5% aqueous benzyl alcohol and administered to a concentrated stock of Friend virus estimated to contain greater than 10^4 virus focus forming units at final hypericin concentrations of 1 μg/ml and 5 μg/ml. The mixture was incubated on ice for one hour. A control preparation was incubated in parallel in the absence of the compound. Additional experimental groups were exposed to light from a 200 watt visible light halogen source in the presence of equivalent hypericin concentrations for 1×30 seconds and 2×30 seconds respectively.
The treated virus was diluted in phosphate buffered saline (PBS) to final dilutions of 1:500 and of 1:2000. The diluted treated and control virus preparations were injected intraperitoneally into BALB/c mice (3 mice per group). A single mouse from each group was sacrificed on day 11 for assessment of spleen size in order to determine the degree of FLV inactivation by hypericin.

The test system of the next series is retroviral particles. The experiment in a line: Detergent-mediated (Triton X-100) release of reverse transcriptase from hypericin-treated viral particles. Type of series: biochemical. As to the method: (§2) Thus it is much more difficult to measure reverse transcriptase from virus treated with hypericin prior to exposure to detergent than with virus first disrupted with detergent and then incubated with hypericin.
The effects on virion-encapsulated enzyme are presumed to be due to the failure of the capsids, within which the […] is sequestered, to be disrupted after hypericin treatment.

Series [7] concerns purified reverse transcriptase enzyme. Put plainly: Enzymatic activity of purified reverse transcriptase enzyme. Type of series: biochemical. Particulars: assay conditions used, FIG. 2. As to the method:
as §2

Series [8] relates to Friend virus. Put plainly: Inactivation of Friend virus by hypericin, Rose Bengal and combinations, splenomegaly (FIG. 9). To be noted: agents at 2-5 mg/ml, 1 hour on ice, virus 1:2000, spleen weight day 14. The class given is in vivo, BALB/C mice. On the procedure: FIG. 9 is a graph showing the inactivation of Friend virus by Hypericin, Rose Bengal and combinations thereof. Friend virus was diluted 1:2000 in PBS and incubated with no hypericin or concentrations of hypericin of 1, 2, or 5 mg/ml alone, or in combination with Rose Bengal (RB) at concentrations of 2 and 5 mg/ml for 1 hour on ice. The treated virus preparations were injected into BALB/C mice. On day 14, 1 mouse from each group was sacrificed and analyzed for spleen weight.
FIGS. 9 and 10 show the results of a study in which Friend virus was treated with hypericin, Rose Bengal or combinations of hypericin and Rose Bengal at different concentrations and ratios. The virus treated in this manner was injected into BALB/C mice. […] Lack of, or suppression of, splenomegaly serves as an index of the degrees of virus inactivation. […] This proves that virus inactivation by both agents, alone and in combination, was effective.

Series [9] has as its system HIV. Put plainly: Effect of light on hypericin reduction of HIV infectivity titer for H9 target cells, limiting dilution assay. The class given is cell-based. To be noted: ambient light; FIG. 5. The source says: FIG. 5 is a graph showing the effect of ambient light treatment on hypericin's ability to reduce the infectivity titer of HIV for H9 target cells, measured in a limiting dilution assay.

The subject of another series is murine RadLV particles. The experiment in a line: Inactivation of RadLV particles by hypericin with Rose Bengal (particle-derived reverse transcriptase). Type of series: biochemical. To be noted: Rose Bengal 1-2 μg/ml, hypericin 0.001-1 μg/ml; FIG. 4. On the procedure: Assays for virus particle-derived reverse transcriptase were performed according to Stephenson, J. R. et al., Virology 48:749-756 (1972)).
Hypericin is a photodynamic agent which, in the presence of light, produces excited oxygen species such as singlet oxygen and superoxide radicals. These excited oxygen species play a role in the antiviral and antiretroviral activity of hypericin and hypericin analogs. While this property of producing excited oxygen species may account for inactivation of the virus or retrovirus particle, it is not sufficient to explain the enhanced immunogenicity of the inactivated virus. Support for this notion comes from experimental findings by the present inventors using another photodynamic agent, Rose Bengal. Rose Bengal also produces excited oxygen species, is also capable of inactivating retroviral particles and interacts synergistically with hypericin in inactivating the virus.

Consider `Cc1cc(O)c2c(=O)c3c(O)cc(O)c4c5c(O)cc(O)c6c(=O)c7c(O)cc(C)c8c1c2c(c34)c(c78)c65` [hypericin], for which, in series [1], the “extraction of viral RNA by guanidinium hydrochloride” value is reported as “dramatic inhibition of the ability of guanidinium hydrochloride to extract RNA; also recorded: yields of extractable RNA were markedly reduced”. The “solubility in organic solvents” value in series [2] (above pH 11.5 (salt, two cations)) was “substantially insoluble in organic solvents”; in series [2] (below pH 11.5 (ion pair, one cation)) it was “soluble in organic solvents”. The figures for the “INHIBITION (Log1 0 Reduction) RT” value in series [3] (hypericin 10 μg/ml) and in series [3] (hypericin 25 μg/ml) were 0.60 Log1 0 Reduction and 1.72 Log1 0 Reduction, respectively. The “protection from live virus challenge (immunogenicity of inactivated virus preparation)” value in the series on Friend virus [4] is “greatest degree of protection”. Also, the log reduction at 10 µg/mL in the series with HIV [5] (Human immunodeficiency virus 1, CEM174, Expt 1, read-out: INHIBITION (Log1 0 Reduction) INFECTIVITY) stood at 4; with HIV [5] (Human immunodeficiency virus 1, CEM174, Expt 2, virus incubated overnight at 4° C., read-out: INHIBITION (Log1 0 Reduction) INFECTIVITY) it was 4.75. Moreover, the log reduction at 25 µg/mL with HIV [5] (Human immunodeficiency virus 1, CEM174, Expt 1, hypericin 25 μg/ml, read-out: INHIBITION (Log1 0 Reduction) INFECTIVITY) was determined as 4.75. In addition, the log reduction at 1 µg/mL in the series with HIV [5] (Human immunodeficiency virus 1, CEM174, Expt 2, hypericin 1 μg/ml, virus incubated overnight at 4° C., read-out: INHIBITION (Log1 0 Reduction) INFECTIVITY) is 0. In the series on HIV [5] (Human immunodeficiency virus 1, CEM174, Expt 2, hypericin 2 μg/ml, virus incubated overnight at 4° C., read-out: INHIBITION (Log1 0 Reduction) INFECTIVITY), the log reduction at 2 µg/mL came to 3.75. In addition, in the series with HIV [5] (Human immunodeficiency virus 1, CEM174, Expt 2, hypericin 5 μg/ml, virus incubated overnight at 4° C., read-out: INHIBITION (Log1 0 Reduction) INFECTIVITY), the log reduction at 5 µg/mL amounted to 4.25. Besides, in the series on HIV [5] (after treatment with hypericin (summary of Table 3)), the “HIV infectivity titers diminished” value is on record as 3-4 logs. In addition, in series [6] (200 watt visible light halogen source, 1×30 and 2×30 seconds), the “effect of increased light exposure on FV inactivation by hypericin” value is listed as “did not enhance the ability of hypericin to inactivate FV”. In series [6] (hypericin 1 and 5 μg/ml, 1 hour on ice, i.p. BALB/c mice, spleen size day 11, FIG. 6), the “virus-induced splenomegaly after injection of hypericin-treated FLV” value is on record as “significantly reduced the ability of the virus to induce splenomegaly; also recorded: absence or presence of minimal splenomegaly”. In addition, the “detergent-mediated release of reverse transcriptase activity from viral particles” value in the series on retroviral particles (0.5-1% Triton X-100, FIG. 1) was “prevents detergent-mediated (0.5-1% Triton X-100) release of reverse transcriptase activity”. For the same compound, the “resistance of virion to disruption with non-ionic detergents” value with retroviral particles (1% aqueous Triton X-100) was “more resistant to disruption”. Further, the “effect on reverse transcriptase enzymatic activity” value in series [7] was “no effect on reverse transcriptase enzymatic activity; also recorded: does not directly affect enzymatic activity of purified reverse transcriptase enzyme”. In the series on Friend virus [8], the “suppression of virus-induced splenomegaly (virus inactivation)” value is recorded as “effectively suppressed virus-induced splenomegaly”. Also, the “effect of light on antiviral activity of hypericin” value in the series on HIV [9] is “Light can enhance the antiviral activity”.
As to `O=C1OC2(c3cc(I)c(O)c(I)c3Oc3c2cc(I)c(O)c3I)c2c(Cl)c(Cl)c(Cl)c(Cl)c21` [Rose Bengal], the “protection from live virus challenge (immunogenicity of inactivated virus preparation)” value in the series with Friend virus [4] was “does not cause marked enhancement of immunogenicity”; in the series with Friend virus [4] (listed as Rose-Bengal), “lower levels of protection”. The “effect of Rose Bengal on hypericin inactivation of retroviral particles” value in the series on murine RadLV particles is reported as “enhances the ability of hypericin; also recorded: enhanced the ability of hypericin to inactivate retroviral particles”. Moreover, the “suppression of virus-induced splenomegaly (virus inactivation)” value in the series on Friend virus [8] is reported as “effectively suppressed virus-induced splenomegaly”.
